Assays:
[1] = for molar entropy: 101.33 kPa; for Triple point temperature: Adiabatic calorimetry
[2] = Molar enthalpy of transition or fusion; settings: Adiabatic calorimetry

Cl.NC12CC3CC(CC(C3)C1)C2 [1-aminoadamantane hydrochloride]
[1]
Settings | molar entropy [J/K/mol]
5 K, Crystal 3, Small (less than 1 g) adiabatic calorimetry | 0.1924
10 K, Crystal 3, Small (less than 1 g) adiabatic calorimetry | 1.564
15 K, Crystal 3, Small (less than 1 g) adiabatic calorimetry | 4.477
20 K, Crystal 3, Small (less than 1 g) adiabatic calorimetry | 8.48
25 K, Crystal 3, Small (less than 1 g) adiabatic calorimetry | 13.09
30 K, Crystal 3, Small (less than 1 g) adiabatic calorimetry | 17.99
35 K, Crystal 3, Small (less than 1 g) adiabatic calorimetry | 22.99
40 K, Crystal 3, Small (less than 1 g) adiabatic calorimetry | 27.96
45 K, Crystal 3, Small (less than 1 g) adiabatic calorimetry | 32.87
50 K, Crystal 3, Small (less than 1 g) adiabatic calorimetry | 37.68
60 K, Crystal 3, Small (less than 1 g) adiabatic calorimetry | 46.99
70 K, Crystal 3, Small (less than 1 g) adiabatic calorimetry | 55.88
80 K, Crystal 3, Small (less than 1 g) adiabatic calorimetry | 64.42
90 K, Crystal 3, Small (less than 1 g) adiabatic calorimetry | 72.68
100 K, Crystal 3, Small (less than 1 g) adiabatic calorimetry | 80.74
110 K, Crystal 3, Small (less than 1 g) adiabatic calorimetry | 88.67
120 K, Crystal 2, Small (less than 1 g) adiabatic calorimetry | 96.9
120 K, Crystal 3, Small (less than 1 g) adiabatic calorimetry | 96.53
123.1 K, Crystal 1, Small (less than 1 g) adiabatic calorimetry | 100.6
123.1 K, Crystal 2, Small (less than 1 g) adiabatic calorimetry | 99.33
130 K, Crystal 1, Small (less than 1 g) adiabatic calorimetry | 106
140 K, Crystal 1, Small (less than 1 g) adiabatic calorimetry | 113.7
150 K, Crystal 1, Small (less than 1 g) adiabatic calorimetry | 121.3
160 K, Crystal 1, Small (less than 1 g) adiabatic calorimetry | 128.7
170 K, Crystal 1, Small (less than 1 g) adiabatic calorimetry | 136
180 K, Crystal 1, Small (less than 1 g) adiabatic calorimetry | 143.3
190 K, Crystal 1, Small (less than 1 g) adiabatic calorimetry | 150.5
200 K, Crystal 1, Small (less than 1 g) adiabatic calorimetry | 157.7
210 K, Crystal 1, Small (less than 1 g) adiabatic calorimetry | 164.8
220 K, Crystal 1, Small (less than 1 g) adiabatic calorimetry | 172
230 K, Crystal 1, Small (less than 1 g) adiabatic calorimetry | 179.1
240 K, Crystal 1, Small (less than 1 g) adiabatic calorimetry | 186.3
250 K, Crystal 1, Small (less than 1 g) adiabatic calorimetry | 193.4
260 K, Crystal 1, Small (less than 1 g) adiabatic calorimetry | 200.6
270 K, Crystal 1, Small (less than 1 g) adiabatic calorimetry | 207.8
280 K, Crystal 1, Small (less than 1 g) adiabatic calorimetry | 215
290 K, Crystal 1, Small (less than 1 g) adiabatic calorimetry | 222.2
298.15 K, Crystal 1, Small (less than 1 g) adiabatic calorimetry | 228.1
300 K, Crystal 1, Small (less than 1 g) adiabatic calorimetry | 229.5
310 K, Crystal 1, Small (less than 1 g) adiabatic calorimetry | 236.7
320 K, Crystal 1, Small (less than 1 g) adiabatic calorimetry | 244
330 K, Crystal 1, Small (less than 1 g) adiabatic calorimetry | 251.3
340 K, Crystal 1, Small (less than 1 g) adiabatic calorimetry | 258.6
350 K, Crystal 1, Small (less than 1 g) adiabatic calorimetry | 265.9
360 K, Crystal 1, Small (less than 1 g) adiabatic calorimetry | 273.3
370 K, Crystal 1, Small (less than 1 g) adiabatic calorimetry | 280.6
380 K, Crystal 1, Small sample (50 mg) DSC | 288
390 K, Crystal 1, Small sample (50 mg) DSC | 295.4
400 K, Crystal 1, Small sample (50 mg) DSC | 302.8
410 K, Crystal 1, Small sample (50 mg) DSC | 310.2
420 K, Crystal 1, Small sample (50 mg) DSC | 317.6
430 K, Crystal 1, Small sample (50 mg) DSC | 325
440 K, Crystal 1, Small sample (50 mg) DSC | 332.5
450 K, Crystal 1, Small sample (50 mg) DSC | 339.9
460 K, Crystal 1, Small sample (50 mg) DSC | 347.3
470 K, Crystal 1, Small sample (50 mg) DSC | 354.8

Settings | Molar enthalpy of transition or fusion, [2] [kcal/mol] | Triple point temperature, [1] [K]
Crystal 2 | 0.0366 | 123.1
Crystal 3 | 0.0108 | 120
